Assay results from ChEMBL document CHEMBL5154661, “Novel 2-phenyl-3-(Pyridin-2-yl) thiazolidin-4-one derivatives as potent inhibitors for proliferation of osteosarcoma cells in vitro and in vivo” (Eur J Med Chem, 2022).
In brackets after ≈: the same amount, converted by molar mass.

Assays:
HOS-TE85 [1] = experiment: Antiproliferative activity against human MNNG/HOS cells assessed as cell growth inhibition measured after 72 hrs by CCK-8 assay; assay type: functional, cell-based; conditions: HOS-TE85, 72 h
[2] = Microsomal stability in mouse liver microsomes assessed as intrinsic clearance at 0.1 uM incubated for 10 mins in presence of NADPH by LC-MS/MS analysis; assay type: ADME, Microsome
143B = experiment: Antiproliferative activity against human 143B cells assessed as cell growth inhibition at 1 uM measured after 72 hrs by CCK-8 assay relative to control; assay type: functional
MG-63 [3] = experiment: Antiproliferative activity against human MG-63 cells assessed as cell growth inhibition at 1 uM measured after 72 hrs by CCK-8 assay relative to control; assay type: functional
[4] = Microsomal stability in human liver microsomes assessed as intrinsic clearance at 0.1 uM incubated for 10 mins in presence of NADPH by LC-MS/MS analysis; assay type: ADME, Microsome
SJSA-1 [5] = experiment: Antiproliferative activity against human SJSA-1 assessed as cell growth inhibition at 1 uM measured after 72 hrs by CCK-8 assay relative to control; assay type: functional
[6] = Microsomal stability in rat liver microsomes assessed as intrinsic clearance at 0.1 uM incubated for 10 mins in presence of NADPH by LC-MS/MS analysis; assay type: ADME, Microsome
[7] = Kinetic solubility of compound at pH 6.8 by turbidimetry method; assay type: physicochemical; conditions: buffer, read-out: Kinetic_solubility
[8] = Kinetic solubility of compound at pH 7.4 by turbidimetry method; assay type: physicochemical; conditions: buffer, read-out: Kinetic_solubility
HOS = experiment: Antiproliferative activity against human HOS cells assessed as cell growth inhibition at 1 uM measured after 72 hrs by CCK-8 assay relative to control; assay type: functional
HOS-TE85 [9] = experiment: Antiproliferative activity against human MNNG/HOS cells assessed as cell growth inhibition at 1 uM measured after 72 hrs by CCK-8 assay relative to control; assay type: functional
U2OS = experiment: Antiproliferative activity against human U2OS cells assessed as cell growth inhibition at 1 uM measured after 72 hrs by CCK-8 assay relative to control; assay type: functional
MG-63 [10] = experiment: Antiproliferative activity against human MG-63 cells assessed as cell growth inhibition measured after 72 hrs by CCK-8 assay; assay type: functional, cell-based; conditions: MG-63, 72 h
SJSA-1 [11] = experiment: Antiproliferative activity against human SJSA-1 cells assessed as cell growth inhibition measured after 72 hrs by CCK-8 assay; assay type: functional, cell-based; conditions: SJSA-1, 72 h
HOS-TE85 [12] = experiment: Antitumor activity against human MNNG/HOS cells xenografted in female BALB/c nude mouse assessed as tumor growth inhibition at 30 mg/kg, po administered daily for 18 days relative to control; assay type: functional; conditions: HOS-TE85, 432 h, time 18 day, read-out: TGI
[13] = Toxicity in BALB/c nude mouse xenografted with human MNNG/HOS cells assessed as body weight loss at 62.5 mg/kg, ip administered twice per day for 18 days; assay type: organism-based, HOS-TE85; conditions: in vivo, 432 h, time 18 day

Row | SMILES | IC50 (HOS-TE85 [1]) [nM] | intrinsic clearance (CLint) [2] [mL/min/g] | inhibition at 1 µM (143B) [%] | inhibition at 1 µM (MG-63 [3]) [%] | intrinsic clearance (CLint) [4] [mL/min/g] | inhibition at 1 µM (SJSA-1 [5]) [%] | intrinsic clearance (CLint) [6] [mL/min/g] | solubility kinetic [7] [µM] | solubility kinetic [8] [µM] | inhibition at 1 µM (HOS) [%] | inhibition at 1 µM (HOS-TE85 [9]) [%] | inhibition at 1 µM (U2OS) [%] | IC50 (MG-63 [10]) [nM] | IC50 (SJSA-1 [11]) [nM] | inhibition in vivo at 30 mg/kg (HOS-TE85 [12]) [%] | Activity [13]
1 | Cc1cccc(N2C(=O)CSC2c2cccc(C(=O)NCCCCc3ccccc3)c2)c1 (stereo unspecified) | 93.2 | 2936 | 71 | 93 | 2553 | 84 | 3139 | 10 (≈ 4.45 µg/mL) | 10 (≈ 4.45 µg/mL) | 84 | 96 | 39 | – | – | – | –
2 | O=C(NCCCCc1ccccc1)c1cccc(C2SCC(=O)N2c2ccccc2F)c1 (stereo unspecified) | 34.1 | 2014 | 59 | 92 | 1712 | 80 | 2946 | 20 (≈ 8.97 µg/mL) | 10 (≈ 4.49 µg/mL) | 83 | 95 | 38 | – | – | – | –
3 | COc1ccc(F)cc1N1C(=O)CSC1c1cccc(C(=O)NCCCCc2ccccc2)c1 (stereo unspecified) | 8.8 | 2247 | 62 | 86 | 1253 | 76 | 2298 | 10 (≈ 4.79 µg/mL) | 10 (≈ 4.79 µg/mL) | 46 | 95 | 32 | – | – | – | –
4 | CC(F)(F)c1cccc(N2C(=O)CSC2c2cccc(C(=O)NCCCCc3ccccc3)c2)c1 (stereo unspecified) | 29.1 | 2014 | 1 | 92 | 1750 | 68 | 2323 | 10 (≈ 4.95 µg/mL) | 2 (≈ 0.989 µg/mL) | 23 | 93 | 24 | – | – | – | –
5 | Cc1ccnc(N2C(=O)CSC2c2cccc(C(=O)NCCCCn3cccn3)c2)c1 (racemic) | 19.6 | 392 | – | – | 128.7 | – | 1022 | 50 (≈ 21.8 µg/mL) | 50 (≈ 21.8 µg/mL) | – | – | – | 38.9 | 33.2 | – | –
6 | CNC(=O)c1cc(Oc2ccc(NC(=O)Nc3ccc(Cl)c(C(F)(F)F)c3)cc2)ccn1 [SORAFENIB] | – | – | – | – | – | – | – | – | – | – | – | – | – | – | 44.2 | Non-Toxic
7 | COc1ccccc1N1C(=O)C(C)SC1c1cccc(C(=O)NCCCCc2ccccc2)c1 (stereo unspecified) | 45.1 | 2948 | 61 | 94 | 2657 | 84 | 2908 | 20 (≈ 9.49 µg/mL) | 10 (≈ 4.75 µg/mL) | 82 | 95 | 38 | – | – | – | –
8 | COc1c(F)cccc1N1C(=O)CSC1c1cccc(C(=O)NCCCCc2ccccc2)c1 (stereo unspecified) | 26.2 | – | 5 | 0 | – | 1 | – | – | – | 9 | 12 | 12 | – | – | – | –
9 | O=C(NCCCCc1ccccc1)c1cccc(C2SCC(=O)N2c2cccc(F)c2)c1 (stereo unspecified) | 32.4 | 2737 | 63 | 92 | 1844 | 80 | 3244 | 10 (≈ 4.49 µg/mL) | 10 (≈ 4.49 µg/mL) | 84 | 94 | 39 | – | – | – | –
10 | CCOc1ccccc1N1C(=O)C(C)SC1c1cccc(C(=O)NCCCCc2ccccc2)c1 (stereo unspecified) | 71.6 | – | 53 | 92 | – | 85 | – | – | – | 82 | 94 | 37 | – | – | – | –
